Source: patent US11033609B2, “Cyclic acetylcholinesterase C-terminal peptide in the treatment or prevention of cancer or metastasis” (priority 2014, dated 2021)
Where a SMILES comes first, the peptide text is derived from it.

Tests used:
Format in all cases: cell-based, human
primary CLL cells [1] = experiment: Annexin V/propidium iodide in vitro apoptosis (cytotoxicity) assay; conditions: for apoptosis (cytotoxic effect): primary CLL cells derived from patients, 72 h
Method: (§1) The acute myeloid leukaemia (AML) KG1a cell line was maintained in RPMI medium (Invitrogen) supplemented with 100 units/ml penicillin, 100 μg/ml streptomycin and 20% foetal calf serum. The multiple myeloma (MM) cell line H929, the two breast cancer cell lines (MCF7 and MDA-MB-231), the MEC-1 cells and the primary chronic lymphocytic leukaemia cells were maintained in RPMI medium supplemented with 100 units/ml penicillin, 100 μg/ml streptomycin and 10% foetal calf serum. The media used contained acetylcholine but after the initial set of experiments an additional 100 μM of acetylcholine was added to the culture media. Cells were subsequently aliquoted (10^6 cells/ml) into 24-well plates and were incubated at 37° C. in a humidified 5% carbon dioxide atmosphere for 72 h in the presence of the peptides (T15, T30, NBP-14 and the combination of T30+NBP-14) at concentrations between 0.1 nM and 1 μM. In addition, control cultures were carried out to which no peptide was added. Cells were subsequently harvested by centrifugation and were analysed by flow cytometry using the Annexin V assay or were counted using a Vi-Cell XR cell viability counter (Beckman Coulter).
(§2) Cultured cells were harvested by centrifugation and then resuspended in 195 of calcium-rich buffer. Subsequently, 5 μl of Annexin V (eBiosciences) was added to the cell suspension and cells were incubated in the dark for 10 mins prior to washing. Cells were finally resuspended in 190 μl of calcium-rich buffer together with 10 μl of propidium iodide. Apoptosis was assessed by dual-colour immunofluorescent flow cytometry using an Accuri C6 flow cytometer and data were analysed using CFlow software (BD Biosciences).
(§3) The in vitro drug sensitivity was measured using the Annexin V/propidium iodide assay. Comparison of the effects of each peptide alone or in combination in the various cell lines and primary cells are shown below.

JJN3 cells [2] = experiment: Transwell migration assay; conditions: for migration: JJN3, 1 μM peptide, 24 h transwell, vs no peptide control
Method: (§4) The acute myeloid leukaemia (AML) KG1a cell line was maintained in RPMI medium (Invitrogen) supplemented with 100 units/ml penicillin, 100 μg/ml streptomycin and 5% foetal calf serum. The multiple myeloma (MM) cell line JJN3, the two breast cancer cell lines (MCF7 and MDA-MB-231), the primary chronic lymphocytic leukaemia cells and normal B-lymphocytes were maintained in RPMI medium supplemented with 100 units/ml penicillin, 100 μg/ml streptomycin and 5% foetal calf serum. In addition, 100 μM of acetylcholine was added to the culture media to ensure that the availability of acetylcholine was not a limiting factor in these experiments.
(§5) In vitro migration assays were performed by using 6.0 μm pore size transwell migration plates (Costar, Corning, N.Y.). A total of 10^6 CLL cells in 500 μl of RPMI media were added to the upper chamber of the transwell insert. 100 ng/ml of CXCL12 was added to the baso-lateral chamber for all the cell types tested apart from KG1a cells. […] Instead, media containing 10% foetal calf serum was added to the baso-lateral chamber in these experiments. The plates were incubated for 24 h at 37° C. in 5% CO2 in the presence of the peptides (T15, T30, NBP-14 and the combination of T30+NBP-14) at concentrations between 0.1 nM and 10 μM. In addition, control cultures were carried out to which no peptide was added. Cells were subsequently harvested by centrifugation and were analysed by flow cytometry using an Accuri C6 flow cytometer (BD). None of the conditions tested induced significant cell death in the cultures. Migration of CLL cells was determined by counting cells that migrated to the lower (baso-lateral) chamber of the transwell plate and then expressed as a percentage of the total number of cells initially added to the upper (apical) chamber.

MCF7 cells [3] = experiment: Transwell migration assay; conditions: for migration: MCF7, 1 μM peptide, 24 h transwell, vs no peptide control
Method: as §4, §5

primary CLL cells [4] = experiment: Transwell migration assay; conditions: for migration: primary CLL cells from 10 patients, 1 μM peptide, 24 h transwell
Method: as §4, §5

normal B-lymphocytes = experiment: Transwell migration assay; conditions: normal B-lymphocytes from healthy volunteers, 1 μM peptide, 24 h transwell
Method: as §4, §5

KG1a cells [5] = experiment: Transwell migration assay; conditions: for migration: 1 μM peptide, 24 h transwell, vs no peptide control
Method: as §4, §5

KG1a cells [6] = experiment: Annexin V/propidium iodide in vitro apoptosis (cytotoxicity) assay; conditions: 72 h
Method: as §1, §2, §3

MEC-1 cells [7] = experiment: Transwell migration assay; conditions: MEC-1, 1 μM NBP-14 vs baseline control
Method: as §5

H929 cells [8] = experiment: Transwell migration assay; conditions: H929, 1 μM NBP-14 vs baseline control
Method: as §5

MEC-1 cells [9] = experiment: Annexin V/propidium iodide in vitro apoptosis (cytotoxicity) assay; conditions: MEC-1, 72 h
Method: as §1, §2, §3

MCF7 cells [10] = experiment: as above; conditions: MCF7, 72 h, peptides 0.1 nM to 1 μM
Method: as §1, §2, §3

H929 cells [11] = experiment: as above; conditions: H929, 72 h
Method: as §1, §2, §3

MDA-MB-231 cells [12] = experiment: as above; conditions: MDA-MB-231, 72 h, peptides 0.1 nM to 1 μM
Method: as §1, §2, §3

JJN3 cells [13] = experiment: In vitro proliferation; conditions: JJN3, concentrations of peptide >0.1 μM
[14] = test system: normal B- and T-lymphocytes; experiment: Annexin V/propidium iodide apoptosis assay in normal cells; conditions: B- and T-lymphocytes from normal healthy volunteers
Method: as §2, §3
In order to assess the effects of the acetylcholinesterase-derived peptides on normal (non-malignant) cells, B- and T-lymphocytes were isolated from normal healthy volunteers (n=3).

MEC-1 cells [15] = experiment: In vitro proliferation (Vi-Cell XR viable cell count); conditions: MEC-1, concentrations above 0.1 μM
Method: as §1
(§6) Cultured cells were harvested by centrifugation and were then counted using a Vi-Cell XR cell viability counter. The number of viable cells in each culture was then expressed as a percentage of the viable cells in the control cultures (no peptide).

MCF7 cells [16] = experiment: as above; conditions: MCF7, concentrations above 0.1 μM
Method: as §1, §6

H929 cells [17] = experiment: as above; conditions: H929, concentrations above 0.1 μM
Method: as §1, §6

KG1a cells [18] = experiment: as above; conditions: concentrations above 0.1 μM
Method: as §1, §6

MDA-MB-231 cells [19] = experiment: as above
Method: as §1, §6

MDA-MB-231 cells [20] = experiment: Transwell migration assay; conditions: for migration: MDA-MB-231, 1 μM peptide, 24 h transwell, vs no peptide control
Method: as §4, §5

Compound | apoptosis (cytotoxic effect) (primary CLL cells [1]) | migration (JJN3 cells [2]) | migration (MCF7 cells [3]) | migration (primary CLL cells [4]) | migration (normal B-lymphocytes) | migration (KG1a cells [5]) | apoptosis (cytotoxic effect) (KG1a cells [6]) | apoptosis (cytotoxic effect) (MEC-1 cells [9]) | apoptosis (cytotoxic effect) (H929 cells [11]) | migration (MDA-MB-231 cells [20]) | further results
Rituximab [reference compound] | more pronounced dose-response |  |  |  |  |  |  |  |  |  | 
T15 (NQFDHYSKQDRCSDL; listed as Homo sapiens) [reference compound] |  | no significant effect | Neither the T15 nor the T30 peptide showed a significant effect | did not significantly altered | no significant effect | did not alter |  |  |  |  | 
Nc1ccn([C@@H]2O[C@H](CO)[C@@H](O)[C@@H]2O)c(=O)n1 [Ara-C, reference compound] |  |  |  |  |  |  | dose-response at concentrations above 0.1 μM |  |  |  | 
CSCC[C@@H]1NC(=O)[C@H](Cc2ccc(O)cc2)NC(=O)[C@H](CO)NC(=O)[C@H](CO)NC(=O)[C@H](Cc2c[nH]c3ccccc23)NC(=O)[C@H](CCCNC(=N)N)NC(=O)[C@H](Cc2c[nH]cn2)NC(=O)[C@H](Cc2ccccc2)NC(=O)[C@H](CCC(=O)O)NC(=O)[C@H](C)NC(=O)[C@H](CCCCN)NC(=O)[C@H](Cc2c[nH]c3ccccc23)NC(=O)[C@H](Cc2c[nH]cn2)NC(=O)[C@H](C(C)C)NC1=O [NBP-14] (cyclo(AEFHRWSSYMVHWK)) | evidence of dose-response at concentrations above 0.1 μM | significant inhibited | little effect | significant reduction in migration | significant reduction | significantly inhibited | modest apoptotic effects | modest apoptotic effects | modest apoptotic effects | significantly inhibited | migration (MEC-1 cells [7]): significant reduction in cell migration; migration (H929 cells [8]): significant reduction in cell migration; apoptosis (cytotoxic effect) (MCF7 cells [10]): relatively increased sensitivity; apoptosis (primary CLL cells [1]; primary CLL cells, at 1 μM): ~20%; apoptosis (cytotoxic effect) (MDA-MB-231 cells [12]): modest apoptotic effects; proliferation (JJN3 cells [13]): anti-proliferative activity; toxicity in normal (non-malignant) cells [14]: lack of toxicity; proliferation (MEC-1 cells [15]): reduced proliferation; proliferation (MCF7 cells [16]): not as significant; proliferation (H929 cells [17]): reduced proliferation; proliferation (KG1a cells [18]): reduced proliferation; proliferation (MDA-MB-231 cells [19]; MDA-MB-231, peptide concentrations above 0.1 μM, compared with T15 control peptide): significant reduction in proliferation; inhibition of migration compared with T30 (JJN3 cells [2]; JJN3, 1 μM, 24 h): significantly greater extent; migration (dose-response) (JJN3 cells [2]; JJN3, NBP-14 at concentrations ≥1 μM): significant decrease in migration; migration (dose-response) (MCF7 cells [3]; MCF7, NBP-14 at concentrations ≥1 μM): failed to show a significant reduction in migration; sensitivity of primary CLL cells to anti-migratory effect compared with normal B-cells (primary CLL cells [4]; primary CLL cells vs normal B-cells, 24 h): significantly more sensitive; migration (dose-response) (KG1a cells [5]; NBP-14 at concentrations ≥1 μM): significant decrease in migration; migration (dose-response) (MDA-MB-231 cells [20]; MDA-MB-231, NBP-14 at concentrations ≥1 μM): significant decrease in migration
T30 (KAEFHRWSSYMVHWKNQFDHYSKQDRCSDL; listed as Homo sapiens) [reference compound] |  | significant inhibited | Neither the T15 nor the T30 peptide showed a significant effect | did not significantly altered | no significant effect | did not alter |  |  |  | significantly inhibited | proliferation (MDA-MB-231 cells [19]; MDA-MB-231, sub-nanomolar concentrations): increased proliferation; inhibition of migration compared with NBP-14 (MDA-MB-231 cells [20]; MDA-MB-231, 1 μM, 24 h): significantly less effective
Nc1nc(F)nc2c1ncn2[C@@H]1O[C@H](CO)[C@@H](O)[C@@H]1O [fludarabine, reference compound] |  |  |  |  |  |  |  | induced a dose-response | induced a dose-response |  | 
